Consider 13 compounds from ChEMBL document CHEMBL4382259, “Synthesis of novel guttiferone E and xanthochymol derivatives with cytotoxicities by inducing cell apoptosis and arresting the cell cycle phase” (Eur J Med Chem, 2019).

The term IC50 denotes the midpoint of a concentration-inhibition curve.

Some results are limits rather than exact numbers.

Holding throughout (type): functional, cell-based
For one test, the system named is MCF7. Kind of test: Antiproliferative activity against human MCF7 cells after 72 hrs by MTT assay. As to conditions: MCF7, 72 h. On the technique in general: Tetrazolium assays rely on reduction of a dye to a coloured formazan, in cell work by metabolically active cells.
The next test concerns K562. Kind of test: Antiproliferative activity against human K562 cells after 72 hrs by MTT assay. To be noted: K562, 72 h.
The next test has as its system HeLa. Kind of test: Antiproliferative activity against human HeLa cells after 72 hrs by MTT assay.
A further test concerns A549. Kind of test: Antiproliferative activity against human A549 cells after 72 hrs by MTT assay. To be noted: A549, 72 h.
The next test relates to HEL. Kind of test: Antiproliferative activity against HEL cells after 72 hrs by MTT assay. As to conditions: Homo sapiens.

Regarding `CC(C)=CC[C@H]1C[C@@]23C[C@@H](CC=C(C)C)C(C)(C)[C@@](CC=C(C)C)(C(=O)C(C(=O)c4ccc(O)c(OC(=O)CCCCCBr)c4)=C2OC1(C)C)C3=O`, the IC50 in the test on MCF7 was over 20 µM; in the test on K562 it was 14.5 µM; in the test on HeLa it was over 20 µM; with A549, over 20 µM; in the test with HEL it was 9.62 µM.

For the compound `CC(C)=CC[C@H]1C[C@@]23C[C@@H](CC=C(C)C)C(C)(C)[C@@](CC=C(C)C)(C(=O)C(C(=O)c4ccc(O)c(OS(=O)(=O)c5ccc(C)cc5)c4)=C2OC1(C)C)C3=O`, the IC50 in the test on MCF7 was 15.8 µM; in the test on K562, over 20 µM; with HeLa it was 18.4 µM; in the test on A549 it was over 20 µM; in the test on HEL it was 4.66 µM.

As to `C#CCOc1ccc(C(=O)C2=C3OC(C)(C)[C@@H](CC=C(C)C)C[C@@]34C[C@@H](CC=C(C)C)C(C)(C)[C@@](CC=C(C)C)(C2=O)C4=O)cc1OCC#C`, the 50% inhibitory concentration (IC50) with MCF7 was over 20 µM; with K562 it was 17.6 µM; in the test with HeLa it was over 20 µM; in the test with A549 it was over 20 µM; in the test with HEL, 8.89 µM.

Take `CC(C)=CC[C@H]1C[C@@]23C[C@@H](CC=C(C)C)C(C)(C)[C@@](CC=C(C)C)(C(=O)C(C(=O)c4ccc(OC(=O)CCCCCBr)c(OC(=O)CCCCCBr)c4)=C2OC1(C)C)C3=O`: the IC50 in the test on MCF7, in the test with K562, in the test with HeLa, in the test on A549 and in the test on HEL was over 20 µM each time.

With `COc1cccc2c1C(=O)c1c(O)c3c(c(O)c1C2=O)C[C@@](O)(C(=O)CO)C[C@@H]3O[C@H]1C[C@H](N)[C@H](O)[C@H](C)O1` [DOXORUBICIN], the IC50 in the test with MCF7 is 1.74 µM; in the test with K562, 0.65 µM; in the test on HeLa it was 1.69 µM; in the test on A549 it was 3.16 µM; with HEL, 0.42 µM.

For the compound `C=C(C)[C@@H](CC=C(C)C)C[C@]12C[C@@H](CC=C(C)C)C(C)(C)[C@](CC=C(C)C)(C1=O)c1oc3cc(O)c(O)cc3c(=O)c1C2=O`, the 50% inhibitory concentration (IC50) with MCF7, in the test with K562, with HeLa, with A549 and in the test on HEL was over 20 µM in each case.

Consider `CC(C)=CC[C@H]1C[C@@]23C[C@@H](CC=C(C)C)C(C)(C)[C@@](CC=C(C)C)(C(=O)C(C(=O)c4ccc(OCCCCCN5CCOCC5)c(OCCCCCN5CCOCC5)c4)=C2OC1(C)C)C3=O`, for which the concentration for half-maximal inhibition (IC50) was over 20 µM in the test with MCF7; over 20 µM in the test on K562; 5 µM with HeLa; over 20 µM in the test with A549; over 20 µM with HEL.

As for `CC(C)=CC[C@H]1C[C@]23C[C@@H](CC=C(C)C)C(C)(C)[C@H]4CCC(C)(C)O[C@]42OC(=O)C(C(=O)c2ccc(OC(=O)c4ccccc4)c(OC(=O)c4ccccc4)c2)=C3OC1(C)C`, the IC50 with MCF7, in the test on K562, in the test on HeLa, in the test with A549 and in the test on HEL was over 20 µM each time.

As for `CC(C)=CC[C@H]1C[C@]23C[C@@H](CC=C(C)C)C(C)(C)[C@H]4CCC(C)(C)O[C@]42OC(=O)C(C(=O)c2ccc(OC(=O)c4ccc(Br)cc4)c(OC(=O)c4ccc(Br)cc4)c2)=C3OC1(C)C`, the IC50 in the test with MCF7, with K562, in the test on HeLa, in the test with A549 and in the test on HEL was over 20 µM in each case.

Turning to `CC(C)=CC[C@H]1C[C@@]23C[C@@H](CC=C(C)C)C(C)(C)[C@@](CC=C(C)C)(C(=O)C(C(=O)c4ccc(OCc5ccccc5)c(O)c4)=C2OC1(C)C)C3=O`, the IC50 with MCF7 is over 20 µM; in the test with K562 it was over 20 µM; with HeLa, 15.9 µM; in the test with A549, 10.6 µM; in the test with HEL, over 20 µM.

For the compound `CCCCCCCC(=O)Oc1cc(C(=O)C2=C3OC(C)(C)[C@@H](CC=C(C)C)C[C@@]34C[C@@H](CC=C(C)C)C(C)(C)[C@H]3CCC(C)(C)O[C@]34OC2=O)ccc1O`, the IC50 was over 20 µM with MCF7; 15.3 µM in the test on K562; over 20 µM with HeLa; over 20 µM in the test with A549; 18.7 µM in the test with HEL.

For the compound `CCCCCC(=O)Oc1cc(C(=O)C2=C3OC(C)(C)[C@@H](CC=C(C)C)C[C@@]34C[C@@H](CC=C(C)C)C(C)(C)[C@H]3CCC(C)(C)O[C@]34OC2=O)ccc1O`, the IC50 in the test on MCF7 is 15.5 µM; in the test on K562, 13.5 µM; in the test on HeLa, over 20 µM; with A549 it was 19.5 µM; with HEL, 9.53 µM.

On to `COc1ccc(C(=O)C2=C3OC(C)(C)[C@@H](CC=C(C)C)C[C@@]34C[C@@H](CC=C(C)C)C(C)(C)[C@@](CC=C(C)C)(C2=O)C4=O)cc1OC`, for which the half-inhibitory concentration (IC50) is over 20 µM in the test with MCF7; over 20 µM in the test with K562; 19.7 µM in the test on HeLa; over 20 µM in the test on A549; over 20 µM with HEL.
